Experimental data as given in patent US20190086391A1, “METHOD AND SYSTEM FOR CONTINUOUS BIOSENSING” (Yissum Research Development Company of the Hebrew …, priority 2016, published 2019).

System: HepG2/C3A cells
Test: Quantification of ATP/ADP ratio
Format: cell-based, human
Settings: 50 μM
Procedure: Intracellular ATP and ADP quantification was carried out using Abeam ADP/ATP Assay Kit (#ab65313), according to manufacturer's instructions. […] Cells were incubated in nucleotide releasing buffer for 5 min at room temperature, with gentle shaking. Background bioluminescence reading of the reaction mix was taken for calibration, followed by 2 min incubation of 50 μl sample solution in each reaction well, and a bioluminescence reading to measure cellular ATP content. ADP converting enzyme was then added, as instructed, following incubation of 2 min at room temperature to measure total ADP+ATP.

## C=C(C)[C@H]1Cc2c(ccc3c2O[C@@H]2COc4cc(OC)c(OC)cc4[C@@H]2C3=O)O1 [rotenone]
  decrease in ATP/ADP ratio: 47%
